“Also recorded” adds a separate entry of the source.
What was measured:
[1] = Expert taster evaluation in a mango juice drink; conditions: 1 ppm in mango juice drink base (8% sucrose, 0.1% citric acid, 1% clear mango juice, mango flavour 0.05%); base alone: fruity mango
Protocol: (§1) Samples were evaluated by expert tasters. Tasters were asked to describe the samples focusing on authentic taste, mouthfeel, fullness, salty-ness, salivation, umami, sweetness, juiciness, richness, long lastingness and fattiness
Comparison in a Mango Juice Drink
Base is 8% sucrose, 0.1% citric acid, 1% clear mango juice, proprietary mango flavour @ 0.05%

[2] = Expert taster evaluation in beef bouillon; conditions: base alone: salty, umami, powdery
Protocol: as §1
Comparison in Beef Bouillon
Base is Maggi beef bouillon 1 tablet in 500 ml of hot water

[3] = Expert taster evaluation in orange beverage; conditions: 1 ppm in orange beverage (water, 7% sugar, 0.1% citric acid, orange flavour 0.06%); base alone: orange, fruity, slightly candy
Protocol: as §1
Base is water, 7% sugar, 0.1% citric acid, proprietary orange flavour @ 0.06%

[4] = Expert taster evaluation in lemon beverage; conditions: 1 ppm in lemon beverage (water, 7% sucrose, 0.15% citric acid, lemon flavor), base alone: floral, citral
Protocol: as §1
Basis water, 7% sucrose, 0.15% citric acid, proprietary lemon flavor

[5] = 1 ppm in Maggi beef bouillon (1 tablet in 500 ml hot water)

Compound	taste description by expert tasters [1]	taste description by expert tasters [2, 5]	taste description by expert tasters [3]	taste description by expert tasters [4]	taste description by expert tasters ([2]; 25 ppb in Maggi beef bouillon)	taste description by expert tasters ([2]; 50 ppb in Maggi beef bouillon)
CCCCCCCC(=O)N[C@@H](CCSC)C(=O)O [C8:0-met]	green fresh, no additional body	more salty, no additional fullness				
CCCCCC/C=C\CCCC(=O)NC(CCSC)C(=O)O (centres unmarked) [C12:1-met]	ripe full, more juicy, slightly metallic	more salty	nice orange, fresh	fresh, slightly more citral		
CCCCCCCCCCCCCCCC(=O)NC(CCSC)C(=O)O (centres unmarked) [C16:0-met]	fatty, full body, juicy, metallic	salty, full, nice salivating, lingering	slightly metallic, fresh			
CCCCCCCC/C=C\CCCCCCCC(=O)NC(CCSC)C(=O)O (centres unmarked) [C18:1-met]	sweeter, juicy, salivating	very strong salty impact and aftertaste; also recorded: very strong salty impact and aftertaste, more fatty, mouthfeel, lingering full bodied	very juicy fresh, authentic, juicy	fresh, less floral, very juicy, very authentic	more peppery, more salty	more salty, more bouillon taste
CCCCC/C=C\C/C=C\CCCCCCCC(=O)NC(CCSC)C(=O)O (centres unmarked) [C18:2-met]	fresh nice juicy	salivating salty, umami				

Reference: patent US10913922B2, “N-acylated methionine derivatives as food flavoring compounds” (Givaudan S.A., priority 2012, dated 2021)
